Where only a bound is given, the exact number is not on record here.

The test system of one experiment is Eotaxin-3 (CCL26) release. Briefly: Human Whole Blood Eotaxin-3 Assay (IL-4 stimulated). The note with it: Homo sapiens; geometric mean across assay runs and compound batches; EC50 provided for test compounds with >80% Emax. The experiment is classed as cell-based. The procedure:
This was a human whole blood assay using recombinant human Interleukin 4 to stimulate the blood and measuring the ability of the test compounds to inhibit eotaxin-3 release. The biological activities of the test compounds have been tested in human whole blood stimulated with IL-4 measuring Eotaxin-3 release. The test compounds were added to 384 well clear flat-bottom plate in a 4-fold serial dilution in triplicates using a liquid handler. Human whole blood stabilized in lithium-heparin tubes was added in a volume of 65 μL per well, resulting in a final DMSO concentration of 0.5%. The plate is incubated for 2 h at 37° C. under 5% CO2/95% air. Subsequently, 5 μL of recombinant human IL-4 (R&D Systems, cat #204-ILB) was added to the wells to a final concentration of 400 pM. The plate was incubated for 48 h at 37° C. under 5% CO2/95% air. The plate was spun down for 10 minutes at 500×g and 20 μL supernatant was harvested and transferred to a 384 well v-bottom plate using a liquid handler and stored at −20° C. until further analysis. 10 μL supernatant was used to measure the level of Eotaxin-3 (CCL26) using Human Eotaxin-3 MSD kit from Mesocsale (Cat #K251UEK-4). The assay was performed according to the manufacture instructions.
For `CNc1cc(=O)n(-c2ccnc3c2cc([C@@H](C)N2CC=C(c4c(F)cc(C(=O)N5CCn6nc(CN7CCC(c8ccc(NC9CCC(=O)NC9=O)cc8F)CC7)cc6C5)cc4F)CC2)n3C)cc1F` (stereo in doubt) [Example 2g2, 3-((4-(1-((5-(3,5-difluoro-4-(1-((R)-1-(4-(5-fluoro-4-(methylamino)-2-oxopyridin-1(2H)-yl)-1-methyl-1H-pyrrolo[2,3-b]pyridin-2-yl)-ethyl)-1,2,3,6-tetrahydro-pyridin-4-yl)benzoyl)-4,5,6,7-tetrahydropyrazolo[1,5-a]pyrazin-2-yl)methyl)piperi-din-4-yl)-3-fluorophenyl)-amino)piperidine-2,6-dione], the EC50 was found to be 119 nM. That is a sub-micromolar value.

The next experiment deals with T1, STAT6 (Homo sapiens, UniProt P42226).
T1 construct: These cells express endogenous STAT6; host or cells: HeLa LgBiT clone 4.14 (CRISPR knock-in of HiBiT into the endogenous STAT6 gene)
T1 sequence (P42226 1-847): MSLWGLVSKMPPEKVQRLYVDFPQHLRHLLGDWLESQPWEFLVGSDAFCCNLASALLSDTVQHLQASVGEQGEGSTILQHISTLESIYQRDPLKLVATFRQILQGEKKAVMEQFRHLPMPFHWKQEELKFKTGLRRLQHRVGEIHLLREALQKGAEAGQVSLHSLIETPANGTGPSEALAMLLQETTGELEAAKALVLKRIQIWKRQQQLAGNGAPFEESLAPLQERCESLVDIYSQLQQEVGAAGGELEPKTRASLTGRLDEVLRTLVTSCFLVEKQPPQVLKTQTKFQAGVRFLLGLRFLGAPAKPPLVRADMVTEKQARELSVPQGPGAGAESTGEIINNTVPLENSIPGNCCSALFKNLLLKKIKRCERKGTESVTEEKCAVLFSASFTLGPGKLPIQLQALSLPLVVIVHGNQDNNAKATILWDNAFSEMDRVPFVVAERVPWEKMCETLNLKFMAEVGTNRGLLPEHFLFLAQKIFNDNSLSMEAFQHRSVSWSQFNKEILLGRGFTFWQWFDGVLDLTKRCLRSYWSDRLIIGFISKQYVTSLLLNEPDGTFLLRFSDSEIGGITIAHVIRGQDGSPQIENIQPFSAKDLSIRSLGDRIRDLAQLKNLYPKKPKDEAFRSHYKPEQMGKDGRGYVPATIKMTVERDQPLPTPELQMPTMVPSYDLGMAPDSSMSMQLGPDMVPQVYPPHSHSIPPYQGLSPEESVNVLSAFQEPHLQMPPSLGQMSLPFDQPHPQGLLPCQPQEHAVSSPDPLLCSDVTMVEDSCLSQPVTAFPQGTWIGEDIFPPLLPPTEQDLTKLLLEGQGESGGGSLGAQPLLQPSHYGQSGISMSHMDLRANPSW
In words: STAT6 Degrader Assay (HiBiT based, HeLa LgBiT clone 4.14 cells). In kind it is cell-based. The note with it: HeLa; maximal STAT6 degradation. The procedure:
This was a HiBit based assay. A HeLa cell line stably transfected with a small protein, LgBit (Large Bit) was obtained from Promega. These cells express endogenous STAT6. A small 11 amino acid gene sequence (HiBiT) was inserted in the STAT6 gene using CRISPR technology. Once STAT6 protein is expressed in the cells, the HiBiT sequence will bind the LgBit in the cells resulting in a functional NanoBiT protein, giving a luminescent tag to STAT6. Single cell clones were prepared and the clone 4.14 was selected for the assay based on that clone showing high luminescence, high STAT6 phosphorylation upon stimulation with IL-4, and inhibition of luminescence when cells were treated with STAT6 siRNA. HeLa LgBiT clone 4.14 cells were suspended in DMEM with 10% FCS, 1% Pen/Strep, Na-pyrovate and Hygromycin B, at a concentration of 1.25*105 cells pr mL. 5000 cells were added pr well of a 384 well plate and 20 nL of compound was added by Echo® liquid handler. NN6394A (terfenadine, a toxic compound) was added to control wells at 50 μM concentration to establish the assay window. In these wells the cells are dead which equals 100% degradation of STAT6. After 4-24 h of incubation at 37° C. under 5% CO2/95% air, 5 μL substrate (Nano-GLO®) was added to the wells and the plates were centrifuged and incubated for 0.5 h. The luminescence in the wells as a measure of non-degraded STAT6 was measured in a plate reader (BMG Pherastar FSX). The measured DC50 (in nM) was determined.
(In general: The HiBiT peptide binds its large partner to form an active luciferase.)
As for `Cc1cc(C(=O)N(C)c2ccc(C3CCN(c4ccc(NC5CCC(=O)NC5=O)cc4F)CC3)cc2)cc(F)c1C1=CCN([C@H](C)c2cc3c(-n4ccc5[nH]ccc5c4=O)ccnc3n2C)CC1` (stereo partly drawn) [Example 2g134, N-(4-(1-(4-((2,6-dioxopiper-idin-3-yl)amino)-2-fluoro-phenyl)piperidin-4-yl)phen-yl)-3-fluoro-N,5-dimethyl-4-(1-((R)-1-(1-methyl-4-(4-oxo-1,4-dihydro-5H-pyrrolo[3,2-c]pyridin-5-yl)-1H-pyrrolo [2,3-b]pyridin-2-yl)ethyl)-1,2,3,6-tetrahydropyridin-4-yl)benzamide], the Emax was in the range of 50 to 60%.
In the case of `Cc1cc(C(=O)N2CCC(CN3CCN(c4ncc(NC5CCC(=O)NC5=O)cc4F)CC3)CC2)cc(F)c1C1=CCN([C@@H](C)c2cc3c(-n4ccc5c(c4=O)CCN5)ccnc3n2C)CC1` (stereo partly drawn) [Example 2g49, 3-((5-fluoro-6-(4-((1-(3-fluoro-5-methyl-4-(1-((S)-1-(1-methyl-4-(4-oxo-1,2,3,4-tetrahydro-5H-pyrrolo[3,2-c]pyridin-5-yl)-1H-pyrrolo [2,3-b]pyridin-2-yl)ethyl)-1,2,3,6-tetrahydropyridin-4-yl)benzoyl)piperidin-4-yl)-methyl)piperazin-1-yl)-pyridin-3-yl)amino)piperi-dine-2,6-dione], the Emax is below 20%.
`CNc1ccn(-c2ccnc3c2cc(CN2CCC(c4c(C)cc(C(=O)N5CCC(CN6CCN(c7ccc(NC8CCC(=O)NC8=O)cc7F)CC6)CC5)cc4F)CC2)n3C)c(=O)c1` (stereo not drawn) [Example 2g60, 3-((3-fluoro-4-(4-((1-(3-fluoro-5-methyl-4-(1-((1-methyl-4-(4-(methylamino)-2-oxopyridin-1(2H)-yl)-1H-pyrrolo[2,3-b]pyridin-2-yl)-methyl)piperidin-4-yl)benzo-yl)piperidin-4-yl)methyl)-piperazin-1-yl)phenyl)amino)-piperidine-2,6-dione] gave an Emax below 20%.

Staying with this experiment, now noted: geometric mean across assay runs and compound batches; DC50 provided for test compounds with >80% Emax; read-out: STAT6 degradation DC50.
For the compound `CNc1ccn(-c2ccnc3c2cc([C@H](C)N2CC=C(c4c(C)cc(C(=O)N5CCC(CN6CCN(c7ccc(NC8CCC(=O)NC8=O)cc7F)CC6)CC5)cc4F)CC2)n3C)c(=O)c1` (stereo partly drawn) [Example 2g37, 3-((3-fluoro-4-(4-((1-(3-fluoro-5-methyl-4-(1-((S)-1-(1-methyl-4-(4-(methyl-amino)-2-oxopyridin-1(2H)-yl)-1H-pyrrolo[2,3-b]pyridin-2-yl)ethyl)-1,2,3,6-tetrahydro-pyridin-4-yl)benzoyl)piperi-din-4-yl)methyl)piperazin-1-yl)phenyl)amino)piperidine-2,6-dione], the DC50 was 1.8 nM.
Consider `CNc1ccn(-c2ccnc3c2cc(CN2CCC(c4c(C)cc(C(=O)N5CCC(CN6CCN(c7ccc(N[C@H]8CCC(=O)NC8=O)cc7F)CC6)CC5)cc4F)CC2)n3C)c(=O)c1` (single isomer, unassigned) [Example 2g62], for which the DC50 was determined as 18 nM.
Consider `CNc1ccn(-c2ccnc3c2cc([C@H](C)N2CC=C(c4c(C)cc(C(=O)N5CCn6nc(CN7CCC(c8ccc(N[C@H]9CCC(=O)NC9=O)cc8F)CC7)cc6C5)cc4F)CC2)n3C)c(=O)c1` (single isomer, unassigned) [Example 2g16], for which the DC50 turned out to be 0.2 nM.
Turning to `CNc1ccn(-c2ccnc3c2cc([C@H](C)N2CC=C(c4c(C)cc(C(=O)N5CCC(CN6CCN(c7ccc(NC8CCC(=O)NC8=O)cc7F)C[C@H]6C)CC5)cc4F)CC2)n3C)c(=O)c1` (stereo partly drawn) [Example 2g46, 3-((3-fluoro-4-((R)-4-((1-(3-fluoro-5-methyl-4-(1-((S)-1-(1-methyl-4-(4-(methyl-amino)-2-oxopyridin-1(2H)-yl)-1H-pyrrolo[2,3-b]pyridin-2-yl)ethyl)-1,2,3,6-tetrahydro-pyridin-4-yl)benzoyl)piperi-din-4-yl)methyl)-3-methyl-piperazin-1-yl)phenyl)amino)-piperidine-2,6-dione], the DC50 came to 3.1 nM.
The same measure, in the same setting: the result for `CNc1ccn(-c2ccnc3c2cc([C@H](C)N2CC=C(c4c(C)cc(C(=O)N5CCC(CN6CCN(c7ccc(N[C@@H]8CCC(=O)NC8=O)cc7F)CC6)CC5)cc4F)CC2)n3C)c(=O)c1` (single isomer, unassigned) [Example 2g38] reads 2.4 nM.
Still for that read-out and setting: the result for `CNc1cc(=O)n(-c2ccnc3c2cc([C@H](C)N2CC=C(c4c(C)cc(C(=O)N5CCC(CN6CCN(c7ccc(N[C@@H]8CCC(=O)NC8=O)cc7F)CC6)CC5)cc4F)CC2)n3C)cc1F` (single isomer, unassigned) [Example 2g93] reads 7.2 nM; that for `CNc1ccn(-c2ccnc3c2cc([C@H](C)N2CC=C(c4c(C)cc(C(=O)N5CCC(CN6CCN(c7ccc(N[C@H]8CCC(=O)NC8=O)cc7F)C[C@H]6C)CC5)cc4F)CC2)n3C)c(=O)c1` (single isomer, unassigned) [Example 2g48], 2.4 nM; that for `CNc1ccn(-c2ccnc3c2cc([C@H](C)N2CC=C(c4c(C)cc(C(=O)N5CCC(CN6CCN(c7ccc(N[C@H]8CCC(=O)NC8=O)cc7F)CC6)CC5)cc4F)CC2)n3C)c(=O)c1` (single isomer, unassigned) [Example 2g39], 5 nM.
`CNc1ccn(-c2ccnc3c2cc([C@H](C)N2CC=C(c4c(C)cc(C(=O)N5CCC(CN6CCN(c7ccc(N[C@@H]8CCC(=O)NC8=O)cc7F)C[C@@H]6C)CC5)cc4F)CC2)n3C)c(=O)c1` (single isomer, unassigned) [Example 2g99]: the DC50 was 22.2 nM.
The same measure, in the same setting: the figure for `Cc1cc(C(=O)N2CCC(CN3CCN(c4ccc(N[C@@H]5CCC(=O)NC5=O)cc4F)C[C@H]3C)CC2)cc(F)c1C1=CCN([C@@H](C)c2cc3c(-n4ccc5c(c4=O)CCN5)ccnc3n2C)CC1` (single isomer, unassigned) [Example 2g24] is 3 nM; for `CNc1cc(=O)n(-c2ccnc3c2cc(CN2CCC(c4c(F)cc(C(=O)N5CCC(CN6CCN(c7ccc(N[C@H]8CCC(=O)NC8=O)cc7F)CC6)CC5)cc4F)CC2)n3C)cc1F` (single isomer, unassigned) [Example 2g34] it is 15.1 nM.

Broadly, the EC50 is the concentration giving half of the maximal effect. A lower EC50 goes with an effect from little substance. In general, Emax refers to the greatest response seen or fitted, relative to the assay's reference. As usually defined, the DC50 is the concentration at which degradation of the target reaches its halfway point.
